The values that follow come from patent EP2951180B1, “2,6,7,8 SUBSTITUTED PURINES AS HDM2 INHIBITORS” (Merck Sharp & Dohme Corp., priority 2013, dated 2014).

As usually defined, the IC50 is the point on the concentration scale where inhibition reaches its midpoint.

In the test the target is T1, HDM2 (Homo sapiens, UniProt Q00987).
T1 construct: Thioredoxin (N); made in house; host or cells: E. coli strain BL21(DE3)Rosetta
Briefly: HDM2 FRET assay (inhibition of binding of FITC labeled p53-pocket peptide to HDM2). Conditions: for inhibition at 1 µM: read-out: inh. at 1000 nM (FRET); for IC50: read-out: FRET IC50. The essentials: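 Signal is read as the 520/495 nm emission ratio and converted to percent inhibition; nonlinear sigmoidal regression yields IC50. The assay mixes HDM2 (0.5 nM), FITC-p53 peptide (3 nM) and Tb anti-His antibody (0.25 nM) at 0.1% DMSO.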

The mark [1] stands for this setting: 0.5 nM HDM2 (residues 17 to 125), 3nM peptide, two hour incubation at room temperature.

Where two headings read alike, the source gives them in different places.

T1 sequence (Q00987 17-125): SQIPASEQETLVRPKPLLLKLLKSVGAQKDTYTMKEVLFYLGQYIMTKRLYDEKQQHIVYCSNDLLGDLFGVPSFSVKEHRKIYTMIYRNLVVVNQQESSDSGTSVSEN

With `Cc1cccc(-c2nc3nc(C(=O)O)nc(N4Cc5ccccc5C4)c3n2Cc2ccc(C(F)(F)F)cc2)c1` [Example 6.66, 6-(1,3-dihydro-2H-isoindol-2-yl)-8-(3-methylphenyl)-7-[4-(trifluoromethyl)benzyl]-7H-purine-2-carboxylic acid], the inhibition at 1 µM was determined as 46%.
Take `C[C@@H](Nc1nc(-c2noc(=O)[nH]2)nc2nc(N(C)CC3CCOCC3)n(Cc3ccc(C(F)(F)F)cc3)c12)C1CCC1` [Example 9.93, 3-(6-{[(1R)-1-cyclobutylethyl]amino}-8-[methyl(tetrahydro-2H-pyran-4-ylmethyl)amino]-7-[4-(trifluoromethyl)benzyl]-7H-purin-2-yl)-1,2,4-oxadiazol-5(4H)-one]: the IC50 (Table 9) came out at 47 nM.
Turning to `CC(=O)N1CCN(c2nc3nc(-c4noc(=O)[nH]4)nc(N[C@H](C)C4CCC4)c3n2C[C@H]2CC[C@H](C)CC2)[C@H](C)C1` [Example 17.9, 3-(8-((R)-4-acetyl-2-methylpiperazin-1-yl)-6-(((R)-1-cyclobutylethyl)amino)-7-((trans-4-methylcyclohexyl)methyl)-7H-purin-2-yl)-1,2,4-oxadiazol-5(4H)-one], the IC50 (Table 17.2) stood at 2.61 nM.
Take `Cc1cccc(-c2nc3nc(C(=O)O)nc(N[C@H](C)C4CCC4)c3n2Cc2ccc(Cl)cc2)c1` [Example 6.2, 7-(4-chlorobenzyl)-6-{[(1R)-1-cyclobutylethyl]amino}-8-(3-methylphenyl)-7H-purine-2-carboxylic acid]: the IC50 (Table 6) was determined as 13.9 nM.
Take `COc1ncc(Cl)cc1-c1nc(-c2n[nH]c(=O)o2)nc2nc(N3CCOC[C@H]3c3ccccc3)n(C[C@H]3CC[C@H](C)CC3)c12` [Example 16.157, 5-{6-(5-chloro-2-methoxypyridin-3-yl)-7-[(trans-4-methylcyclohexyl)methyl]-8-[(3R)-3-phenylmorpholin-4-yl]-7H-purin-2-yl} - 1,3,4-oxadiazol-2(3H)-one]: the IC50 under setting [1] was 0.882 nM.
For the molecule `COC(c1cscn1)c1nc2nc(-c3noc(=O)[nH]3)nc(N[C@H](C)C3CCC3)c2n1C[C@H]1CC[C@H](C)CC1` (stereo partly drawn) [Example 22.74, 3-(6-{[(1R)-1-cyclobutylethyl]amino}-8-[methoxy(1,3-thiazol-4-yl)methyl]-7-[(trans-4-methylcyclohexyl)methyl] -7H-purin-2-yl)-1,2,4-oxadiazol-5(4H)-one], the IC50 (Table 22) came to 2.63 nM.
On to `CC(C)c1ccnc(-c2nc3nc(C(=O)O)nc(N[C@H](C)C4CCC4)c3n2C[C@H]2CC[C@H](CF)CC2)c1` [Example 18.10, 6-(((R)-1-cyclobutylethyl)amino)-7-((trans-4-(fluoromethyl)cyclohexyl)methyl)-8-(4-isopropylpyridin-2-yl)-7H-purine-2-carboxylic acid], for which, under “Table 18”, the half-maximal inhibitory concentration (IC50) came out at 9.38 nM.
Turning to `C[C@@H](Nc1nc(-c2noc(=O)[nH]2)nc2nc(C3(c4ccccc4)CC3)n(C[C@H]3CC[C@H](C)CC3)c12)C1CCC1` [Example 20.5, 3-[6-{[(1R)-1-cyclobutylethyl]amino}-7-[(trans-4-methylcyclohexyl)methyl]-8-(1-phenylcyclopropyl)-7H-purin-2-yl]-1,2,4-oxadiazol-5(4H)-one], the IC50 (Table 20) came out at 4.98 nM.
With `CC[C@@H]1COCCN1c1nc2nc(-c3noc(=O)[nH]3)nc(-c3cccc(Cl)c3)c2n1C(C)[C@H]1CC[C@H](C)CC1` (single isomer, unassigned) [Example 18.51], under “Table 18”, the IC50 turned out to be 10.5 nM.
For `Cc1cccc(-c2nc3nc(C(=O)O)nc(N[C@H](CCCO)C4CCC4)c3n2Cc2ccc(Cl)cc2)c1` [Example 7.1, 7-(4-chlorobenzyl)-6-{[(1R)-1-cyclobutyl-4-hydroxybutyl]amino}-8-(3-methylphenyl)-7H-purine-2-carboxylic acid], the IC50 (Table 7) was found to be 105 nM.
As to `C[C@@H](Nc1nc(C(=O)O)nc2nc(C3CCCC3c3ccccc3)n(Cc3ccc(C(F)(F)F)cc3)c12)C1CCC1` (single isomer, unassigned) [Example 21.6], the half-inhibitory concentration (IC50) (Table 21) came out at 1.36 nM.
As for `C[C@@H](Nc1nc(-c2n[nH]c(=O)o2)nc2nc(N3CCOC4CCCCC43)n(C[C@H]3CC[C@H](C)CC3)c12)C1CCC1` (single isomer, unassigned) [Example 11.126], for the setting “Table 11”, the IC50 was 1.46 nM.
For the molecule `C[C@@H](Nc1nc(-c2noc(=O)[nH]2)nc2nc(N3CCCCC3c3cccnc3)n(C[C@H]3CC[C@H](C)CC3)c12)C1CCC1` (single isomer, unassigned) [Example 11.50], the IC50 (Table 11) was 14.3 nM.
`C[C@@H](Nc1nc(C(=O)O)nc2nc(C3CCCCC3c3ccccc3)n(Cc3ccc(C(F)(F)F)cc3)c12)C1CCC1` (stereo partly drawn) [Example 21.12, 6-{[(1R)-1-cyclobutylethyl]amino}-8-(2-phenylcyclohexyl)-7-[4-(trifluoromethyl)benzyl]-7H-purine-2-carboxylic acid]: the IC50 (Table 21) was found to be 4.57 nM.
For the molecule `C[C@@H](Nc1nc(-c2noc(=O)[nH]2)nc2nc(C3(O)CCCCC3)n(C[C@H]3CC[C@H](C)CC3)c12)C1CCC1` [Example 22.43, 3-(6-{[(1R)-1-cyclobutylethyl]amino}-8-(1-hydroxycyclohexyl)-7-[(trans-4-methylcyclohexyl)methyl] -7H-purin-2-yl)-1,2,4-oxadiazol-5(4H)-one], the IC50 (Table 22) amounted to 13.1 nM.
Take `C[C@@H](Nc1nc(C(=O)O)nc2nc(C3=N[C@H](c4ccccc4)CO3)n(Cc3ccc(C(F)(F)F)cc3)c12)C1CCC1` [Example 10.22, 6-(((R)-1-Cyclobutylethyl)amino)-8-((R)-4-phenyl-4,5-dihydrooxazol-2-yl)-7-(4-(trifluoromethyl)benzyl)-7H-purine-2-carboxylic acid]: for the setting “Table 10”, the half-maximal inhibitory concentration (IC50) came out at 28.4 nM.
Regarding `CCCC1CCCN1c1nc2nc(-c3noc(=O)[nH]3)nc(N[C@H](C)C3CCC3)c2n1C[C@H]1CC[C@H](C)CC1` (stereo partly drawn) [Example 11.35, 3-[6-{[(1R)-1-cyclobutylethyl]amino}-7-[(trans-4-methylcyclohexyl)methyl]-8-(2-propylpyrrolidin-1-yl)-7H-purin-2-yl]-1,2,4-oxadiazol-5(2H)-one], the half-maximal inhibitory concentration (IC50) (Table 11) turned out to be 4.4 nM.
As for `C[C@@H](Nc1nc(-c2noc(=O)[nH]2)nc2nc(C(C)(O)c3cccnc3)n(C[C@H]3CC[C@H](C)CC3)c12)C1CCC1` (stereo partly drawn) [Example 22.40, 3-(6-{[(1R)-1-cyclobutylethyl]amino}-8-(1-hydroxy-1-pyridin-3-ylethyl)-7-[(trans-4-methylcyclohexyl)methyl] -7H-purin-2-yl)-1,2,4-oxadiazol-5(2H)-one], the IC50 (Table 22) was found to be 41.6 nM.
As for `COC(C)(C)[C@@H]1COCCN1c1nc2nc(-c3noc(=O)[nH]3)nc(-c3cccc(Cl)c3)c2n1C[C@H]1CC[C@H](C)CC1` [Example 16.63, 3-{6-(3-chlorophenyl)-8-[(3S)-3-(1-methoxy-1-methylethyl)morpholin-4-yl]-7-[(trans-4-methylcyclohexyl)methyl]-7H-purin-2-yl}-1,2,4-oxadiazol-5(4H)-one], under setting [1], the IC50 is 19.7 nM.
Take `C[C@@H](Nc1nc(-c2noc(=O)[nH]2)nc2nc(C(O)(CO)c3ccccc3)n(C[C@H]3CC[C@H](C)CC3)c12)C1CCC1` (single isomer, unassigned) [Example 22.60]: the IC50 (Table 22) was determined as 113 nM.
Regarding `Cc1cccc(-c2nc3nc(C(=O)O)nc(N[C@H](C)C(C)C)c3n2Cc2ccc(C(F)(F)F)cc2)c1` [Example 6.48, 6-{[(1R)-1,2-dimethylpropyl]amino}-8-(3-methylphenyl)-7-[4-(trifluoromethyl)benzyl]-7H-purine-2-carboxylic acid], the concentration for half-maximal inhibition (IC50) (Table 6) was 145 nM.
Take `Cc1nc(C(C)(F)c2nc3nc(-c4noc(=O)[nH]4)nc(N[C@H](C)C4CCC4)c3n2C[C@H]2CC[C@H](C)CC2)c(C)s1` (single isomer, unassigned) [Example 22.73]: the IC50 (Table 22) turned out to be 4.06 nM.
In the case of `CCC1=CCC(Cn2c(-c3cc(C(C)C)ccn3)nc3nc(C(=O)O)nc(N[C@H](C)C4CCC4)c32)CC1` (stereo partly drawn) [Example 18.24, 6-{[(1R)-1-cyclobutylethyl]amino}-7-[(4-ethylcyclohex-3-en-1-yl)methyl]-8-[4-(1-methylethyl)pyridin-2-yl]-7H-purine-2-carboxylic acid], under “Table 18”, the half-maximal inhibitory concentration (IC50) was 15.9 nM.
Take `Cc1cccc(-c2nc3nc(C(=O)O)nc(N4CCCC4C4CCCCC4)c3n2Cc2ccc(C(F)(F)F)cc2)c1` (stereo not drawn) [Example 6.80, 6-(2-cyclohexylpyrrolidin-1-yl)-8-(3-methylphenyl)-7-[4-(trifluoromethyl)benzyl]-7H-purine-2-carboxylic acid]: the inhibition at 1 µM is 40%.
For the molecule `C[C@@H](Nc1nc(-c2noc(=O)[nH]2)nc2nc(CC(C)(C)C)n(C[C@H]3CC[C@H](C)CC3)c12)C1CCC1` [Example 20.7, 3-(6-{[(1R)-1-cyclobutylethyl]amino}-8-(2,2-dimethylpropyl)-7-[(trans-4-methylcyclohexyl)methyl]-7H-purin-2-yl)-1,2,4-oxadiazol-5(4H)-one], the half-inhibitory concentration (IC50) (Table 20) stood at 20.9 nM.
Take `C[C@@H]1OCCN(c2nc3nc(-c4noc(=O)[nH]4)nc(-c4cccc(Cl)c4)c3n2C[C@H]2CC[C@H](C)CC2)[C@@H]1c1ccccc1` [Example 16.126, 3-{6-(3-chlorophenyl)-7-[(trans-4-methylcyclohexyl)methyl]-8-[(2S,3R)-2-methyl-3-phenylmorpholin-4-yl]-7H-purin-2-yl}-1,2,4-oxadiazol-5(4H)-one]: under setting [1], the half-inhibitory concentration (IC50) was determined as 85.6 nM.
Take `CC(c1nc2nc(C(=O)O)nc(N[C@H](C)C3CCC3)c2n1Cc1ccc(C(F)(F)F)cc1)N(C)C1CCCCC1` (stereo partly drawn) [Example 10.11, 6-(((R)-1-cyclobutylethyl)amino)-8-(1-(cyclohexyl(methyl)amino)ethyl)-7-(4-(trifluoromethyl)benzyl)-7H-purine-2-carboxylic acid]: the IC50 (Table 10) was 22.1 nM.
